Assays:
[1] = Inhibition of mushroom TyM1 preincubated for 5 mins followed by addition of L-DOPA as substrate measured for 5 mins by spectroscopic method; design: species or system Agaricus bisporus
Tyrosinase [2] = biological target: T1, Tyrosinase (Homo sapiens, UniProt P14679); assay: Inhibition of tyrosinase in human MNT1 cell lysate pretreated prior to addition of L-DOPA as substrate measured after 3 hrs; type: cell-based
T1 sequence (P14679 whole entry): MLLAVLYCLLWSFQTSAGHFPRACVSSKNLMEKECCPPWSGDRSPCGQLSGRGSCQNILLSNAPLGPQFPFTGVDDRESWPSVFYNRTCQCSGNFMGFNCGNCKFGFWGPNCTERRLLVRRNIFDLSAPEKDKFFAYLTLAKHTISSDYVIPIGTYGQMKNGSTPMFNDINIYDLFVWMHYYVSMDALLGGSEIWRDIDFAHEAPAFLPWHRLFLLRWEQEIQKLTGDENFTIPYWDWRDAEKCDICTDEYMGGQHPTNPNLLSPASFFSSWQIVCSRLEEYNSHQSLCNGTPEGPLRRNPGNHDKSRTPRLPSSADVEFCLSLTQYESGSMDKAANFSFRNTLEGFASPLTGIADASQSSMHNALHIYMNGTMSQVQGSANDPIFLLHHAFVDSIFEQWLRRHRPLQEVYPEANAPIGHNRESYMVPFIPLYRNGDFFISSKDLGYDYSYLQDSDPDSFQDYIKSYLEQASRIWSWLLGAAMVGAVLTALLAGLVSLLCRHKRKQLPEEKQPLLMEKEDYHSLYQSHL

Tyrosinase [3] = biological target: T1, Tyrosinase; assay: Inhibition of tyrosinase in human MNT1 cells assessed as suppression of melanin biosynthesis measured after 96 hrs; type: cell-based
[4] = Cytotoxicity against human MNT1 cells
[5] = biological target: T2, Tyrosinase (Homo sapiens) (UniProt P14679); details: Sf9
T2 sequence (whole entry): T1 sequence (P14679 whole entry)

Tyrosinase [6] = biological target: T1, Tyrosinase; assay: Inhibition of recombinant human tyrosinase expressed in baculovirus infected Sf9 cells assessed as diphenolase activity using L-DOPA as substrate by UV-vis spectrophotometry

Compound	IC50 [1] [µM]	IC50 (Tyrosinase [2]) [µM]	IC50 (Tyrosinase [3]) [µM]	IC50 [4] [µM]	Kic [5] [µM]	Ki (Tyrosinase [6]) [µM]
O=C1/C(=C/c2ccc(O)cc2O)Oc2cc(O)ccc21	> 1000	–	–	–	–	–
O=C1/C(=C/c2ccc(=O)n(O)c2)Oc2cc(O)cc(O)c21	–	34	119	> 500	1.2	–
O=C1/C(=C/c2ccc(O)cc2O)Oc2cccc(O)c21	9	–	–	–	–	–
O=C1/C(=C/c2ccc(=O)n(O)c2)Oc2cccc(O)c21	–	30	120	80	1.02	–
O=C1/C(=C/c2ccc(=O)n(O)c2)Oc2cc(O)ccc21	1.5	16.6	85.3	> 500	–	0.35
O=C1/C(=C/c2ccc(O)cc2O)Oc2cc(O)cc(O)c21	300	–	–	–	–	–
O=c1cc(CO)occ1O [KOJIC ACID]	–	–	–	> 80000	–	–
